Where “and” joins values, the source holds several entries; their conditions need not be identical. Identical values can stand only once.
Tests used:
Type in all cases: in vivo
[1] = Plasma PK and tissue distribution after oral dosing of INTERMEDIATE C4 (3 mg/kg); conditions: PO 3 mg/kg INTERMEDIATE C4, male Wistar Han rat; for Kp at 1 h / Kp at 4 h / Kp at 8 h / Kp / concentration at 1 h / concentration at 4 h / concentration at 8 h: male, Wistar Han, rat, po
Description: (§1) Tissue Distribution of drug intermediate C4 from oral dosing of C4 and of intermediate C4 from oral dosing of example 7 in rats
(§2) • Wistar Han rat, 185-197 g, male, N=8, purchased from Beijing Vital River Co. LTD. Qualification No.: SCXK(J) 2016-0011 11400700240027. Fasted overnight and fed 4 hr post dose. PO: 3 mg/kg (10 mL/kg) via oral gavage(N=8). Sampling at 1, 4, 8 and 24 hr , 4 time points, terminal bleeding for plasma, liver, lymph nodes and spleen collected at each time point.

[2] = Rat oral PK studies of prodrugs at 5 mg/kg; conditions: after PO dose of 5 mg/kg example 7 in male Wistar Han rat; analyte as labelled
Description: Rat oral PK studies of prodrugs at 5 mg/kg dose (solution in 100% (40 mg oleic acid+25mg Tween 80+2 mL of PBS/fresh) at 0.5 mg/mL).

[3] = Plasma PK and tissue distribution after oral dosing of prodrug EXAMPLE 7 (5 mg/kg); conditions: PO 5 mg/kg EXAMPLE 7 (prodrug), analyte as labelled
Description: as §1
as §2, with “5” for “3”, “point” for “point.”

[4] = male Wistar Han rat, 1 hr, 5 mg/kg
[5] = male Wistar Han rat, 4 hr, 5 mg/kg

Liver to plasma ratio individual ([1]; 1 hr, 3 mg/kg): 8.11
Lymph node to plasma ratio individual ([1]; 1 hr, 3 mg/kg): 0.254
Spleen to plasma ratio individual ([1]; 1 hr, 3 mg/kg): 0.197
liver Concentration individual ([1]; 1 hr, 3 mg/kg): 2570 ng/g
lymph node Concentration individual ([1]; 1 hr, 3 mg/kg): 80.4 ng/g
plasma Concentration individual ([1]; 1 hr, 3 mg/kg): 317 ng/mL
spleen Concentration individual ([1]; 1 hr, 3 mg/kg): 62.4 ng/g
Liver to plasma ratio individual ([1]; 4 hr, 3 mg/kg): 14.7
Lymph node to plasma ratio individual ([1]; 4 hr, 3 mg/kg): 0.905
Spleen to plasma ratio individual ([1]; 4 hr, 3 mg/kg): 0.333
liver Concentration individual ([1]; 4 hr, 3 mg/kg): 898 ng/g
lymph node Concentration individual ([1]; 4 hr, 3 mg/kg): 55.4 ng/g
plasma Concentration individual ([1]; 4 hr, 3 mg/kg): 61.2 ng/mL
spleen Concentration individual ([1]; 4 hr, 3 mg/kg): 20.4 ng/g
spleen Concentration Mean ([1]; 8 hr): BQL
spleen Concentration individual ([1]; 8 hr): BQL
Liver to plasma ratio individual ([1]; 8 hr, 3 mg/kg): 13.2
liver Concentration individual ([1]; 8 hr, 3 mg/kg): 299 ng/g
lymph node Concentration individual ([1]; 8 hr, 3 mg/kg): BQL
plasma Concentration individual ([1]; 8 hr, 3 mg/kg): 22.7 ng/mL
liver Concentration Mean ([1]; 24 hr): BQL
liver Concentration individual ([1]; 24 hr): BQL
lymph node Concentration Mean ([1]; 24 hr): BQL
lymph node Concentration individual ([1]; 24 hr): BQL
plasma Concentration Mean ([1]; 24 hr): BQL
plasma Concentration individual ([1]; 24 hr): BQL
spleen Concentration Mean ([1]; 24 hr): BQL
spleen Concentration individual ([1]; 24 hr): BQL
AUC(0-t) ([1]; liver, read-out: AUClast (liver)): 10200 ng·h/mL
AUC(0-t) ([1]; lymph node, read-out: AUClast (lymph node)): 381 ng·h/mL
Kp at 1 h ([1]; liver / plasma, 3 mg/kg, 1 hr, read-out: Liver to plasma ratio Mean): 9.31
Kp at 1 h ([1]; liver / plasma, 3 mg/kg, 1 hr, read-out: Liver to plasma ratio individual): 10.5
Kp at 4 h ([1]; liver / plasma, 3 mg/kg, 4 hr, read-out: Liver to plasma ratio Mean): 13.7
Kp at 4 h ([1]; liver / plasma, 3 mg/kg, 4 hr, read-out: Liver to plasma ratio individual): 12.7
Kp at 8 h ([1]; liver / plasma, 3 mg/kg, 8 hr, read-out: Liver to plasma ratio Mean): 14.6
Kp at 8 h ([1]; liver / plasma, 3 mg/kg, 8 hr, read-out: Liver to plasma ratio individual): 16
Kp ([1]; liver / plasma, 3 mg/kg, read-out: AUCliver/AUCplasma): 10.7
concentration at 1 h ([1]; liver, 3 mg/kg, 1 hr, read-out: liver Concentration Mean): 3130 ng/g
concentration at 1 h ([1]; liver, 3 mg/kg, 1 hr, read-out: liver Concentration individual): 3690 ng/g
concentration at 4 h ([1]; liver, 3 mg/kg, 4 hr, read-out: liver Concentration Mean): 883 ng/g
concentration at 4 h ([1]; liver, 3 mg/kg, 4 hr, read-out: liver Concentration individual): 868 ng/g
concentration at 8 h ([1]; liver, 3 mg/kg, 8 hr, read-out: liver Concentration Mean): 420 ng/g
concentration at 8 h ([1]; liver, 3 mg/kg, 8 hr, read-out: liver Concentration individual): 540 ng/g
Kp at 1 h ([1]; lymph node / plasma, 3 mg/kg, 1 hr, read-out: Lymph node to plasma ratio Mean): 0.293
Kp at 1 h ([1]; lymph node / plasma, 3 mg/kg, 1 hr, read-out: Lymph node to plasma ratio individual): 0.333
Kp at 4 h ([1]; lymph node / plasma, 3 mg/kg, 4 hr, read-out: Lymph node to plasma ratio Mean): 0.716
Kp at 4 h ([1]; lymph node / plasma, 3 mg/kg, 4 hr, read-out: Lymph node to plasma ratio individual): 0.526
Kp at 8 h ([1]; lymph node / plasma, 3 mg/kg, 8 hr, read-out: Lymph node to plasma ratio Mean): 0.353
Kp at 8 h ([1]; lymph node / plasma, 3 mg/kg, 8 hr, read-out: Lymph node to plasma ratio individual): 0.353
Kp ([1]; lymph node / plasma, 3 mg/kg, read-out: AUClimphnode/AUCplasma): 0.401
concentration at 1 h ([1]; lymph node, 3 mg/kg, 1 hr, read-out: lymph node Concentration Mean): 98.7 ng/g
concentration at 1 h ([1]; lymph node, 3 mg/kg, 1 hr, read-out: lymph node Concentration individual): 117 ng/g
concentration at 4 h ([1]; lymph node, 3 mg/kg, 4 hr, read-out: lymph node Concentration Mean): 45.7 ng/g
concentration at 4 h ([1]; lymph node, 3 mg/kg, 4 hr, read-out: lymph node Concentration individual): 35.9 ng/g
concentration at 8 h ([1]; lymph node, 3 mg/kg, 8 hr, read-out: lymph node Concentration Mean): 11.9 ng/g
concentration at 8 h ([1]; lymph node, 3 mg/kg, 8 hr, read-out: lymph node Concentration individual): 11.9 ng/g
concentration at 1 h ([1]; plasma, 3 mg/kg, 1 hr, read-out: plasma Concentration Mean): 334 ng/mL
concentration at 1 h ([1]; plasma, 3 mg/kg, 1 hr, read-out: plasma Concentration individual): 351 ng/mL
concentration at 4 h ([1]; plasma, 3 mg/kg, 4 hr, read-out: plasma Concentration Mean): 64.7 ng/mL
concentration at 4 h ([1]; plasma, 3 mg/kg, 4 hr, read-out: plasma Concentration individual): 68.2 ng/mL
concentration at 8 h ([1]; plasma, 3 mg/kg, 8 hr, read-out: plasma Concentration Mean): 28.2 ng/mL
concentration at 8 h ([1]; plasma, 3 mg/kg, 8 hr, read-out: plasma Concentration individual): 33.7 ng/mL
concentration at 1 h ([1]; spleen, 3 mg/kg, 1 hr, read-out: spleen Concentration Mean): 63.9 ng/g
concentration at 1 h ([1]; spleen, 3 mg/kg, 1 hr, read-out: spleen Concentration individual): 65.3 ng/g
concentration at 4 h ([1]; spleen, 3 mg/kg, 4 hr, read-out: spleen Concentration Mean): 19.9 ng/g
concentration at 4 h ([1]; spleen, 3 mg/kg, 4 hr, read-out: spleen Concentration individual): 19.3 ng/g
Kp at 1 h ([1]; spleen/plasma, 3 mg/kg, 1 hr, read-out: Spleen to plasma ratio Mean): 0.191
Kp at 1 h ([1]; spleen/plasma, 3 mg/kg, 1 hr, read-out: Spleen to plasma ratio individual): 0.186
Kp at 4 h ([1]; spleen/plasma, 3 mg/kg, 4 hr, read-out: Spleen to plasma ratio Mean): 0.308
Kp at 4 h ([1]; spleen/plasma, 3 mg/kg, 4 hr, read-out: Spleen to plasma ratio individual): 0.283
Kp ([1]; spleen/plasma, 3 mg/kg, read-out: AUCspleen/AUCplasma): 0.166
AUC(0-inf) ([1]; plasma, mean): 1030 ng·h/mL
Cmax ([1]; plasma, mean): 334 ng/mL
Tmax ([1]; plasma, mean): 1 h
AUC(0-t) ([1]; plasma, mean, read-out: AUClast): 951 ng·h/mL
half-life ([1]; plasma, mean, read-out: Terminal t1/2 (converted)): 2.01 h
AUC(0-t) ([1]; spleen, read-out: AUClast (spleen)): 157 ng·h/mL
DNAUC0_20 [2]: 126.6 ng·h/mL
Lymph node to plasma ratio individual [3, 4]: 2.99
Spleen to plasma ratio individual [3, 4]: 0.677
lymph node Concentration individual [3, 4]: 685 ng/g
plasma Concentration individual [3, 4]: 229 ng/mL
spleen Concentration individual [3, 4]: 155 ng/g
Lymph node to plasma ratio individual [3, 5]: 2.15
Spleen to plasma ratio individual [3, 5]: 0.260
lymph node Concentration individual [3, 5]: 63.1 ng/g
spleen Concentration individual [3, 5]: 23.1 ng/g and 7.65 ng/g
spleen Concentration Mean ([3]; male Wistar Han rat, 8 hr): BQL
spleen Concentration individual ([3]; male Wistar Han rat, 8 hr): BQL
lymph node Concentration individual ([3]; male Wistar Han rat, 8 hr, 5 mg/kg): 16.3 ng/g and 6.17 ng/g
liver Concentration Mean ([3]; male Wistar Han rat, 24 hr): BQL
liver Concentration individual ([3]; male Wistar Han rat, 24 hr): BQL
lymph node Concentration Mean ([3]; male Wistar Han rat, 24 hr): BQL
lymph node Concentration individual ([3]; male Wistar Han rat, 24 hr): BQL
plasma Concentration Mean ([3]; male Wistar Han rat, 24 hr): BQL
plasma Concentration individual ([3]; male Wistar Han rat, 24 hr): BQL
spleen Concentration Mean ([3]; male Wistar Han rat, 24 hr): BQL
spleen Concentration individual ([3]; male Wistar Han rat, 24 hr): BQL
AUC(0-t) ([3]; lymph node, male Wistar Han rat, read-out: AUClast (lymph node)): 1890 ng·h/mL
concentration at 1 h ([3]; male, Wistar Han, rat, lymph node, po, 5 mg/kg, 1 hr, read-out: lymph node Concentration Mean): 807 ng/g
concentration at 1 h ([3]; male, Wistar Han, rat, lymph node, po, 5 mg/kg, 1 hr, read-out: lymph node Concentration individual): 928 ng/g
concentration at 4 h ([3]; male, Wistar Han, rat, lymph node, po, 5 mg/kg, 4 hr, read-out: lymph node Concentration Mean): 73.8 ng/g
concentration at 4 h ([3]; male, Wistar Han, rat, lymph node, po, 5 mg/kg, 4 hr, read-out: lymph node Concentration individual): 84.4 ng/g
concentration at 8 h ([3]; male, Wistar Han, rat, lymph node, po, 5 mg/kg, 8 hr): 11.2 ng/g
Kp at 1 h ([3]; male, Wistar Han, rat, lymph node/plasma, po, 5 mg/kg, 1 hr, read-out: Lymph node to plasma ratio Mean): 3.86
Kp at 1 h ([3]; male, Wistar Han, rat, lymph node/plasma, po, 5 mg/kg, 1 hr, read-out: Lymph node to plasma ratio individual): 4.73
Kp at 4 h ([3]; male, Wistar Han, rat, lymph node/plasma, po, 5 mg/kg, 4 hr, read-out: Lymph node to plasma ratio Mean): 1.66
Kp at 4 h ([3]; male, Wistar Han, rat, lymph node/plasma, po, 5 mg/kg, 4 hr, read-out: Lymph node to plasma ratio individual): 1.16
Kp at 8 h ([3]; male, Wistar Han, rat, lymph node/plasma, po, 5 mg/kg, 8 hr, read-out: Lymph node to plasma ratio Mean): 0.994
Kp at 8 h ([3]; male, Wistar Han, rat, lymph node/plasma, po, 5 mg/kg, 8 hr, read-out: Lymph node to plasma ratio individual): 0.994
Kp ([3]; male, Wistar Han, rat, lymph node/plasma, po, 5 mg/kg, read-out: AUClimphnode/AUCplasma): 2.99
concentration at 1 h ([3]; male, Wistar Han, rat, plasma, po, 5 mg/kg, 1 hr, read-out: plasma Concentration Mean): 213 ng/mL
concentration at 1 h ([3]; male, Wistar Han, rat, plasma, po, 5 mg/kg, 1 hr, read-out: plasma Concentration individual): 196 ng/mL
concentration at 1 h ([3]; male, Wistar Han, rat, spleen, po, 5 mg/kg, 1 hr, read-out: spleen Concentration Mean): 165 ng/g
concentration at 1 h ([3]; male, Wistar Han, rat, spleen, po, 5 mg/kg, 1 hr, read-out: spleen Concentration individual): 175 ng/g
concentration at 4 h ([3]; male, Wistar Han, rat, spleen, po, 5 mg/kg, 4 hr, read-out: spleen Concentration Mean): 15.4 ng/g
Kp at 1 h ([3]; male, Wistar Han, rat, spleen/plasma, po, 5 mg/kg, 1 hr, read-out: Spleen to plasma ratio Mean): 0.785
Kp at 1 h ([3]; male, Wistar Han, rat, spleen/plasma, po, 5 mg/kg, 1 hr, read-out: Spleen to plasma ratio individual): 0.893
Kp at 4 h ([3]; male, Wistar Han, rat, spleen/plasma, po, 5 mg/kg, 4 hr, read-out: Spleen to plasma ratio Mean): 0.289
Kp at 4 h ([3]; male, Wistar Han, rat, spleen/plasma, po, 5 mg/kg, 4 hr, read-out: Spleen to plasma ratio individual): 0.319
Kp ([3]; male, Wistar Han, rat, spleen/plasma, po, 5 mg/kg, read-out: AUCspleen/AUCplasma): 0.558
AUC(0-t) ([3]; spleen, male Wistar Han rat, read-out: AUClast (spleen)): 353 ng·h/mL
Compound: CC(C)CN(c1ccc([C@H](C)CC(=O)O)cc1Nc1cnc(Cl)cn1)C1CCOCC1 [intermediate C4]

— patent US20210186960A1, “MODULATORS OF INDOLEAMINE 2,3-DIOXYGENASE” (GLAXOSMITHKLINE INTELLECTUAL PROPERTY DEVELOPMENT LIMITED, priority 2017, published 2021)
